Data: US20170138969A1, “System And Method For Measuring Permeability Of Drugs/Toxic/Chemical Compounds” (Indian Institute Of Technology Madras, priority 2014, published 2017)

Experiment: Membrane integrity test in lipid monolayer (LB) PAMPA system
Type: in vitro ADME
Description: FIG. 3-4 illustrates graphs 300-400 illustrating the membrane integrity test, in accordance with the disclosed embodiments. The membrane integrity test can be performed according to the standard protocol. An 80 μl aqueous solution containing Lucifer yellow (LY) and Brilliant Cresyl Blue (BCB) in the ratio 1:9 is added into the donor well. The PAMPA system can be assembled and incubated for 5 hours at 25° C. The acceptor plate and donor well are separated and concentration of LY and BCB was analyzed by measuring; Fluorescence: Excitation wavelength @428 mn; Emission wavelength @525 nm; Absorbance; at 610 nm for BCB.
FIG. 3 illustrates the graph 300 showing the permeation of BCB as 0.045; Absorbance units after 5 hours of incubation indicating the presence of integral membrane. Similarly, the graph 400 illustrates the rejection of Lucifer Yellow after 5 hours of incubation indicating the presence of integral membrane. The rejection of Lucifer yellow indicates the presence of an integral membrane.

Substance | permeation of BCB (absorbance at 610 nm, acceptor) (PAMPA) | permeation/rejection of Lucifer Yellow (fluorescence, excitation 428 / emission 525 nm) (LY:BCB 1:9 aqueous solution, 80 μl in donor well, after 5 hours of incubation at 25° C.)
Brilliant Cresyl Blue [BCB] | 0.045 Absorbance units | –
Lucifer yellow | – | rejection
